Laboratory results published in PMC8954382, “A Sub-Micromolar MraYAA Inhibitor with an Aminoribosyl Uridine Structure and a (S,S)-Tartaric Diamide: Synthesis, Biological Evaluation and Molecular Modeling” (Molecules, 2022).
Read-outs that look alike come from different tables or passages of the source.

Columns and labels:
[1] = target: T1, MraY transferase purified from Aquifex aeolicus (MraYAA) (Aquifex aeolicus, UniProt O66465); test: MraYAA transferase inhibition, fluorescence assay with dansylated UDP-MurNAc-pentapeptide; assay type: biochemical; conditions: for IC50: inhibition of MraYAA transferase activity, triplicate, repeated at least twice
T1 construct: His tag; made in house
T1 sequence (O66465 whole entry): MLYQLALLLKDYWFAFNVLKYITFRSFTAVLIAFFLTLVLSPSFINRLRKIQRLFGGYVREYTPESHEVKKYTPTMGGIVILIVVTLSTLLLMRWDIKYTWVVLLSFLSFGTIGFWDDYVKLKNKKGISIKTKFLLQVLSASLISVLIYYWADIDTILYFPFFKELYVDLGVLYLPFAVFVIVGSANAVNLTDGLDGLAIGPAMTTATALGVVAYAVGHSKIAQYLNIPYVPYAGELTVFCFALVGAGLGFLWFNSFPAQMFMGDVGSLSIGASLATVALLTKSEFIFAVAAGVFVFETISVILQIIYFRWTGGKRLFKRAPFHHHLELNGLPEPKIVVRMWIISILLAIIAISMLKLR
Method: The inhibitory activity of the synthesized compounds 2, (S,S)-3a, (R,R)-3b, 4 and 5 was evaluated on MraY transferase purified from Aquifex aeolicus (MraYAA), which was prepared as previously described by Chung et al.. Their activity was compared to the inhibitory activity of the unprotected amino precursor 12, urea-containing inhibitor 13 and C- and N-triazole-containing inhibitors 14 and 15 (Figure 4) that we previously synthesized (Table 1). Commercially available tunicamycin from Streptomyces sp. was used as a positive control in the test.
The inhibitory activity of the synthesized compounds 1–5 was determined as described in Reference. The compounds were evaluated on His-tagged MraY transferase purified from Aquifex aeolicus (MraYAA) prepared as previously described by Chung et al.. The assays were performed as previously described by Stachyra et al. in 96-well plates in a total reaction mixture of 100 µL containing 100 mM of Tris-HCl (pH 7.5), 40 mM MgCl2, 150 µM C55-P, 150 mM NaCl, 25 µM dansylated UDP-MurNAc-pentapeptide and 0.4% of n-dodecyl β-D-maltoside. The reaction was initiated by the addition of pure MraYAA enzyme (10 µL, 0.036 mg/mL). Briefly, MraY catalyzed the formation of lipid I, displaying an apolar environment from polar and hydrosoluble dansylated-UDP-MurNAc-pentapeptide. This modification in the environment of the dansyl probe was accompanied by an enhancement (3.4 times) of fluorescence, as well as a shift of the maximum of fluorescence emission spectrum from 560 nm for the dansylated nucleotidic substrate to 530 nm for the dansylated lipid product (see Figure 2 in Stachyra et al.. This property was exploited to develop an HTS assay and to assess MraY activity by using an Enspire fluorescence microplate reader (Perkin-Elmer, Courtaboeuf, France). The fluorescence measurement was read every two minutes at 37 °C, under shaking during 60 min; the excitation wavelength and the emission wavelength were 340 nm and 530 nm, respectively. Experiments were performed in triplicate, and each experiment was repeated at least twice. In each case, the fluorescence of a control sample without enzyme was subtracted, initial velocity was calculated and percent inhibition was deduced. IC50 values were determined from plots of the percent inhibition versus the inhibitor concentration, and data were processed on Excel software.

[2] = test system: Escherichia coli ATCC 8730; test: Antibacterial activity, MIC by broth microdilution; assay type: cell-based; conditions: Gram -
Method: (§1) Even if our goal was to improve the MraY inhibitory activity of the reference urea 13, and that was successfully achieved, the antibacterial activity of MraY inhibitors 2–5 was also evaluated against several bacterial strains. Gram-negative (E. coli ATCC 8730, C. freundii ATCC8090 and P. aeruginosa ATCC 27853) and Gram-positive pathogenic bacterial strains (S. aureus ATCC 25923 and E. faecium ATCC 19434), including a methicillin resistant strain (S. aureus MRSA ATCC 43300), were selected as representative of pathogen bacterial diversity. Piperacillin and vancomycin were used as positive controls in the tests. […] Therefore, further optimization of the lipophilic side chain is still required to increase the antibacterial activity by modulating the lipophilicity of the molecule.
(§2) Tests were made according to the procedure described in Reference, following EUCAST (European Committee on Antimicrobial Susceptibility testing)/CLSI (Clinical and Laboratory Standard Institute) recommended procedure. This microtitration plate size allows direct detection of bacterial growth in a relatively small volume, without the use of a spectrophotometer or the addition of dyes. Molecules were solubilized in 100% DMSO (cell culture grade) at 20.48 mg/mL concentration and 40-fold diluted in MHB to reduce DMSO concentration in the antibacterial test, just before utilization. The MHB-diluted solutions were then serially two-fold diluted in MHB, at final concentration ranging from 128 to 1 µg/mL. Bacterial inoculums were prepared for each strain, resuspending isolated colonies from 18 h cultured plates. Equivalents of 0.5 Mac Farland turbidity standard (approximately 1.108 CFU/mL) were prepared in saline solution (NaCl […]) and diluted 200-fold in MBH. The bacterial suspensions were then added to microplates containing the diluted molecules. Microtitration plates were incubated overnight at 37 °C. MICs were determined as the lowest dilution of product showing no visual turbidity.

[3] = test system: Staphylococcus aureus MRSA ATCC 43300; test: Antibacterial activity, MIC by broth microdilution; assay type: cell-based; conditions: Gram +
Method: as §1, §2

[4] = test system: Pseudomonas aeruginosa ATCC 27853; test: Antibacterial activity, MIC by broth microdilution; assay type: cell-based; conditions: Gram -
Method: as §1, §2

[5] = test system: Staphylococcus aureus ATCC 25923; test: Antibacterial activity, MIC by broth microdilution; assay type: cell-based; conditions: Gram +
Method: as §1, §2

[6] = test system: Citrobacter freundii ATCC 8090; test: Antibacterial activity, MIC by broth microdilution; assay type: cell-based; conditions: Gram -
Method: as §1, §2

[7] = test system: Enterococcus faecium ATCC 19434; test: Antibacterial activity, MIC by broth microdilution; assay type: cell-based; conditions: Gram +
Method: as §1, §2

MraY = conditions: Table 2, known inhibitor, cited from earlier work
[8] = test system: six selected bacterial species; parameters: method as in PMID 34115086; conditions: previously reported; ref [32]; cited from earlier work

| Compound | IC50 [1] | CMI [2] | CMI [3] | CMI [4] | CMI [5] | CMI [6] | CMI [7] | IC50 (MraY; ref [31]) | antibacterial activity [8] | gain in activity (factor) as compared to the reference compound 13 with an urea linker ([1]; ratio of MraYAA IC50 values) | IC50 (MraY; ref [41]) |
| --- | --- | --- | --- | --- | --- | --- | --- | --- | --- | --- | --- |
| CCCCCCCCCCNC(=O)C(O)C(O)C(=O)NCC(OC1OC(CN)C(O)C1O)C1OC(n2ccc(=O)[nH]c2=O)C(O)C1O [(R,R)-3b] | 1380 ± 50 nM | > 128 µg/mL | > 128 µg/mL | > 128 µg/mL | 128 µg/mL | > 128 µg/mL | > 128 µg/mL |  |  |  |  |
| CCCCCCCCCCCCCCCCC[C@H]1CN(C)[C@@H]([C@H](O[C@@H]2O[C@H](CN)[C@@H](O)[C@H]2O)[C@H]2O[C@@H](n3ccc(=O)[nH]c3=O)[C@H](O)[C@@H]2O)C(=O)N(C)[C@@H]1C(=O)O [Carbacaprazamycin] |  |  |  |  |  |  |  | 104 nM |  |  |  |
| CCCCCCCCCCNc1c(NCC(OC2OC(CN)C(O)C2O)C2OC(n3ccc(=O)[nH]c3=O)C(O)C2O)c(=O)c1=O (stereo not drawn) [Compound 2] | 17970 ± 40 nM | > 128 µg/mL | > 128 µg/mL | > 128 µg/mL | > 128 µg/mL | > 128 µg/mL | > 128 µg/mL |  |  |  |  |
| CCCCCCCCCCC(=O)NCC(OC1OC(CN)C(O)C1O)C1OC(n2ccc(=O)[nH]c2=O)C(O)C1O (stereo not drawn) [Compound 4] | 6490 ± 210 nM | > 128 µg/mL | 128 µg/mL | > 128 µg/mL | 128 µg/mL | > 128 µg/mL | 128 µg/mL |  |  |  |  |
| CCCCCCCCCCS(=O)(=O)NCC(OC1OC(CN)C(O)C1O)C1OC(n2ccc(=O)[nH]c2=O)C(O)C1O (stereo not drawn) [Compound 5] | 2910 ± 130 nM | > 128 µg/mL | > 128 µg/mL | > 128 µg/mL | > 128 µg/mL | > 128 µg/mL | > 128 µg/mL |  |  |  |  |
| NC[C@H](O[C@@H]1O[C@H](CN)[C@@H](O)[C@H]1O)[C@H]1O[C@@H](n2ccc(=O)[nH]c2=O)[C@H](O)[C@@H]1O [Compound 12, reference compound] | 50300 ± 3270 nM |  |  |  |  |  |  |  |  |  |  |
| CCCCCCCCCCNC(=O)NC[C@H](O[C@@H]1O[C@H](CN)[C@@H](O)[C@H]1O)[C@H]1O[C@@H](n2ccc(=O)[nH]c2=O)[C@H](O)[C@@H]1O [Compound 13, reference compound] | 1930 ± 130 nM | > 128 µg/mL | > 128 µg/mL | > 128 µg/mL | > 128 µg/mL | > 128 µg/mL | > 128 µg/mL |  | does not display antibacterial activity |  |  |
| CCCCCCCCCCNC(=O)C(O)C(O)C(=O)NCC(OC1OC(CN)C(O)C1O)C1OC(n2ccc(=O)[nH]c2=O)C(O)C1O [Compound (S,S)-3a] | 370 ± 10 nM | > 128 µg/mL | > 128 µg/mL | > 128 µg/mL | 128 µg/mL | > 128 µg/mL | > 128 µg/mL |  |  | 5 |  |
| CC(C)C[C@H](NC(=O)[C@@H](NC(=O)N[C@H](C(=O)O)C(C)C)[C@@H]1CCN=C(N)N1)C(=O)NCCCN[C@H](C(=O)O)[C@H](O[C@@H]1O[C@H](CN)[C@@H](O)[C@H]1O)[C@H]1O[C@@H](n2ccc(=O)[nH]c2=O)[C@H](O)[C@@H]1O [Muraymycin D2] |  |  |  |  |  |  |  |  |  |  | 46 nM |
| CCN1CCN(C(=O)N[C@@H](C(=O)N[C@@H]2C(=O)N3[C@@H]2SC(C)(C)[C@@H]3C(=O)O)c2ccccc2)C(=O)C1=O [Piperacillin, reference compound] |  | 4 µg/mL | > 128 µg/mL | 8 µg/mL | 4 µg/mL | 4 µg/mL | 4 µg/mL |  |  |  |  |
| CN[C@H](CC(C)C)C(=O)N[C@H]1C(=O)N[C@@H](CC(N)=O)C(=O)N[C@H]2C(=O)N[C@H]3C(=O)N[C@H](C(=O)N[C@H](C(=O)O)c4cc(O)cc(O)c4-c4cc3ccc4O)[C@H](O)c3ccc(c(Cl)c3)Oc3cc2cc(c3O[C@@H]2O[C@H](CO)[C@@H](O)[C@H](O)[C@H]2O[C@H]2C[C@](C)(N)[C@H](O)[C@H](C)O2)Oc2ccc(cc2Cl)[C@H]1O [Vancomycin, reference compound] |  |  | 1 µg/mL |  | 1 µg/mL |  | 0.5 µg/mL |  |  |  |  |
| Tunicamycin [reference compound] | 26 nM |  |  |  |  |  |  |  |  |  |  |
